Test results as given in patent US20250040539A1, “COMPOSITION COMPRISING AN ANTIMICROBIAL AGENT AND A CARBOXAMIDE” (BASF SE, priority 2021, published 2025).

Tested on: bacterial mix: Escherichia coli DSM 1576, Alcaligenes faecalis DSM 13644, Pseudomonas aeruginosa ATCC 15442, Staphylococcus aureus ATCC 6538, Burkholderia …
Assay: Preservative activity of a basic composition (10% PG in water, pH 7) with 1,2-benzisothiazol-3(2H)-one (BIT) against bacterial contamination (Example 2.3)
Type: cell-based
Conditions: day 7
Procedure: An aqueous composition of pH 7 comprising 10% by weight of propyleneglycol (PG) as organic solvent, 0.004% by weight of 1,2-benzisothiazol-3(2H)-one (BIT) as antimicrobial and 0.04% by weight of the amide listed in the below table was tested for its preserving activity against bacterial contamination (the percentages are weight percent and relate to the total weight of the composition). For this purpose, the samples were contaminated with a bacterial mix consisting of: • Escherichia coli DSM 1576 • Alcaligenes faecalis DSM 13644 • Pseudomonas aeruginosa ATCC 15442 • Staphylococcus aureus ATCC 6538 • Burkholderia cepacia DSM 7288 • Pseudomonas putida DSM 12735
The samples were inoculated with the bacterial mix at day 0 to obtain 10E+06 to 10E+07 CFU/ml inoculation in the test sample and stored at 25° C. for 7 days.
CFU was determined at day 7.
Any CFU value at day 7 (d7) obtained with a sample according to the invention containing BIT and amide (10% PG+0.004% BIT+Amide in water) lower than the respective value of the “comparative 2” example (10% by weight of propyleneglycol+0.004% by weight of 1,2-benzisothiazol-3(2H)-one (BIT) in water) indicates a better performance.

## CCCCCCCCCC(=O)N(C)C [n-Decanoyl-N,N-dimethylamide]
10% PG + 0.004% BIT + 0.04% amide
  d7 [CFU/ml]: 4,000 CFU/ml
10% PG + 0.1% amide, no BIT (Comparative 1)
  d7 [CFU/ml]: >100,000 CFU/ml
